Publication PMC7658073 (Clinical Pharmacokinetics, 2020)
Entries after “also recorded” stand apart in the source; their conditions may differ.

Columns and labels:
Format in all cases: in vivo, human
[1] = Phase I DDI study with sildenafil
[2] = Phase I DDI study with midazolam
[3] = Phase I DDI study with sacubitril/valsartan; conditions: vericiguat at steady state with sacubitril/valsartan
[4] = sildenafil 100 mg with vericiguat vs with placebo
[5] = midazolam with vericiguat 10 mg vs midazolam alone

| Structure (SMILES) | Increase in AUC0–12,md (exposure) [3] | Increase in Cmax,md (peak concentration) [3] | other results |
| --- | --- | --- | --- |
| CCCc1nn(C)c2c(=O)[nH]c(-c3cc(S(=O)(=O)N4CCN(C)CC4)ccc3OCC)nc12 [Sildenafil, reference compound] |  |  | Increase in exposure of sildenafil [1, 4]: 13%; Increase in maximum concentration of sildenafil [1, 4]: 17%; Increase in exposure for sildenafil co-administered with vericiguat ([1]; sildenafil 25, 50 or 100 mg, vs sildenafil with placebo): ≤ 22.4% |
| OCc1ncc2n1-c1ccc(Cl)cc1C(c1ccccc1F)=NC2 [1ʹ-hydroxy midazolam] |  |  | Decrease in AUC [2, 5]: 12%; Decrease in Cmax [2, 5]: 16% |
| CCOC(=O)[C@H](C)C[C@@H](Cc1ccc(-c2ccccc2)cc1)NC(=O)CCC(=O)O [Sacubitril, reference compound] | 8% | 18% |  |
| C[C@H](C[C@@H](Cc1ccc(-c2ccccc2)cc1)NC(=O)CCC(=O)O)C(=O)O [LBQ657] | unchanged; also recorded: unaffected | unchanged; also recorded: unaffected |  |
| CCCCC(=O)N(Cc1ccc(-c2ccccc2-c2nnn[nH]2)cc1)[C@H](C(=O)O)C(C)C [Valsartan, reference compound] | 12% | 13% |  |
| Cc1ncc2n1-c1ccc(Cl)cc1C(c1ccccc1F)=NC2 [Midazolam, reference compound] |  |  | Reduction in midazolam exposure ([2]; after 3 days pre-treatment and 1 day co-treatment with vericiguat 10 mg): 18% |
